The nature of data set [1]: Antidiarrheal activity, castor oil test in rats (modified Niemegeers). It counts as in vivo, male Sprague-Dawley rats. Particulars: for ED50: Rattus norvegicus; for separation between antidiarrheal and analgetic activity (in words): from RAS; for RAS (Relative Antidiarrheal Specificity): Analgetic ED50 divided by the Antidiarrheal ED50, oral; for Antidiarrheal Activity ED50 (95% Confidence Limits) Castor Oil Test in Rats: 60 min. As to the method:
A modification of the castor oil test described by Niemegeers [Arzneim.-Forsch., 22, 516-518 (1972)] was used. Male Sprague-Dawley rats (180-220 g) were dosed orally (in one case, subcutaneously) with a test compound or vehicle 1 hour before receiving a standard dose of castor oil orally (3 ml/rat). The rats were individually caged and examined for the presence of diarrhea hourly. Control animals had 100% incidence of diarrhea 1 hour after administering the castor oil. The percentage of rats protected from diarrhea was calculated 1 hour after the castor oil. Six rats were used per dose level.
(§1) Morphine sulfate was dissolved in distilled water.

Data set [2] can be described thus: Suppression of withdrawal jumping due to abstinence in withdrawn morphine-dependent mice.
Data set [3] can be described thus: Suppression of body weight loss due to abstinence in withdrawn morphine-dependent rats. Particulars: oral administration, FIG. 1.
Data set [4] is described as follows: Analgetic activity, radiant heat method (Rat Tail Flick Test). It counts as in vivo, male Sprague-Dawley rats. As to conditions: Table I, oral, rats; for ED50: Rattus norvegicus, read-out: Analgetic Activity Rat Tail Flick ED50 (95% Confidence Limits). As to the method: Analgetic activity was determined by the radiant heat method (Rat Tail Flick Test) of D'Amour and Smith [J. Pharm. Exp. Ther., 72, 74-79 (1941)] in Sprague-Dawley male rats (140-180 g). An all or none response was used to determine the dose of test material which produced at least a 100 percent increase in predose response time in 50 percent of the test animals (ED50). The ED50 values were based on at least 3 doses per drug (6 rats per dose level) and calculated by means of the Finney Dose Response procedure [Finney, D. J., Probit Analysis, University Press, Cambridge, England (1971)].
as §1
(Thermal pain tests record how soon the animal reacts.)

The conditions of data set [5]: high oral doses (40-60 mg); cited from earlier work.
The conditions of data set [6]: even in its salt forms; cited from earlier work.
[7] abbreviates: Table II, d,l-Ia(1) subcutaneous, Ib(1) isomers oral.
The mark [8] stands for this setting: Table I, oral, rats, 1 hour after castor oil, read-out: Antidiarrheal Activity Castor Oil Test in Rats ED50 (95% Confidence Limits).
Setting [9] is: Table II, separate test, oral administration.

Some results are limits rather than exact numbers.

In the case of `CN1CC[C@]23CCC(=O)C[C@@H]2[C@H]1Cc1ccc(O)cc13` (relative stereo) [d,l-Ia(1), d,l-3-Hydroxy-7-oxo-N-methylisomorphinan], in data set [1] (sc, 1 h, Table II, separate test, subcutaneous administration, read-out: Antidiarrheal Activity ED50 (95% Confidence Limits) Castor Oil Test in Rats), the median effective dose (ED50) (in general, the dose at which the effect has come halfway, by size or by number of responders) amounted to 0.56 mg/kg. Also, the “antidiarrheal potency (in words)” value in data set [1] (setting [7]) is listed as “potent antidiarrheal agent”.

For `CN1CC[C@]23CCC(=O)C[C@H]2[C@H]1Cc1ccc(O)cc13` (relative stereo) [d,l-Ib(1), d,l-3-Hydroxy-7-oxo-N-methylmorphinan], the ED50 is 1.08 mg/kg in data set [1] (1 h, Table II, separate test, oral administration, read-out: Antidiarrheal Activity ED50 (95% Confidence Limits) Castor Oil Test in Rats); 1.41 mg/kg in data set [1] (setting [8]); > 150 mg/kg in data set [4]. Moreover, in data set [1] (oral, rats), the “separation between antidiarrheal and analgetic activity (in words)” value is “excellent separation between antidiarrheal and analgetic activity”. For the same molecule, the “Percent Suppression of Withdrawal Jumping” value in data set [2] (9 mg/kg po) and in data set [2] (27 mg/kg po) was 0% throughout. Besides, the “suppressant action on withdrawal jumping (in words)” value in data set [2] (oral, doses as high as 27 mg/kg) is given as “No suppressant action”. Further, the “prevention of body weight loss due to morphine withdrawal / ability to substitute for morphine (in words)” value in data set [3] was “no significant prevention of body weight loss”.

On to `CCOC(=O)C1(c2ccccc2)CCN(CCC(C#N)(c2ccccc2)c2ccccc2)CC1` [Diphenoxylate], for which the typical opioid effects result in data set [5] is “euphoria, suppression or morphine abstinence, and a morphine-like physical dependence after chronic administration”. Further, the “RAS (Relative Antidiarrheal Specificity)” value in data set [1] (rats) was found to be 102. Also, the values for the ED50 in data set [1] (setting [8]) and in data set [4] were 0.11 mg/kg and 11.2 mg/kg, respectively. The “antidiarrheal potency (in words)” value in data set [1] (Table I, oral, rats) is listed as “most potent antidiarrheal drug studied”. Besides, the “improvement of RAS over morphine” value in data set [1] (oral, rats) was “tenfold”. In addition, the “suppression of withdrawal jumping (in words)” value in data set [2] (oral dose of 9 mg/kg) is “suppressed withdrawal jumping”. In data set [6], the “solubility (in words)” value is “highly insoluble”.

In the case of `CN1CC[C@]23c4c5ccc(O)c4O[C@H]2[C@@H](O)C=C[C@H]3[C@H]1C5` [Morphine SO4], in data set [1] (rats), the “RAS (Relative Antidiarrheal Specificity)” value is reported as 14. Moreover, the “Antidiarrheal Activity Castor Oil Test in Rats ED50 (95% Confidence Limits)” value in data set [1] (Table I, oral, rats, 1 hour after castor oil) was 2.2 (1.5-3.1) mg/kg. Further, the “separation between antidiarrheal and analgetic activity (in words)” value in data set [1] (oral, rats) was “poor separation between antidiarrheal and analgetic activity”. Moreover, in data set [2] (sc, limits (0.9-3.1) printed on next line), the “ED50, Suppression of Withdrawal Jumping” value came out at 1.8. In data set [4], the “Analgetic Activity Rat Tail Flick ED50 (95% Confidence Limits)” value is 30.5 (26.3-35.0) mg/kg.

Turning to `COc1ccc2c3c1O[C@H]1C(=O)CC[C@@]4(O)[C@@H](C2)N(C)CC[C@]314` [Oxycodone], in data set [2] (10 mg/kg po), the “Percent Suppression of Withdrawal Jumping” value came out at 100%.

Consider `CN1CC[C@]23CCC(=O)C[C@H]2[C@H]1Cc1ccc(O)cc13` [d-Ib(1), d-3-Hydroxy-N-methyl-7-oxomorphinan], for which the “Antidiarrheal Activity ED50 (95% Confidence Limits) Castor Oil Test in Rats” value in data set [1] (setting [9]) was < 1.

With `CN1CC[C@]23CCC(=O)C[C@H]2[C@H]1Cc1ccc(O)cc13` [l-Ib(1), l-3-Hydroxy-N-methyl-7-oxomorphinan], the “Antidiarrheal Activity ED50 (95% Confidence Limits) Castor Oil Test in Rats” value in data set [1] (setting [9]) is 0.64 (0.46-0.86). The “antidiarrheal potency (in words)” value in data set [1] (setting [7]) is listed as “most potent isomer”.
